Results from PMC5410595, “In Vitro and In Silico Antidiabetic and Antimicrobial Evaluation of Constituents from Kickxia ramosissima (Nanorrhinum ramosissimum)” (Frontiers in Pharmacology, 2017).
“Also recorded” adds a separate entry of the source.

Tests used:
[1] = test system: MRC-5, human fetal lung fibroblasts
Method: (§1) Fractions and isolated compounds were evaluated for antimicrobial activity in an integrated screening panel, also including the human MRC-5 cell line to assess selectivity, as reported before ([Cos et al., 2006]; [Mesia et al., 2008]; [Baldé et al., 2010]; [Amin et al., 2016]).

Staphylococcus aureus = assay: Antimicrobial screening panel: Staphylococcus aureus; format: cell-based
Method: as §1

[2] = test system: Trypanosoma cruzi, Tulahuen LacZ, clone C4; assay: Antimicrobial screening panel: Trypanosoma cruzi; format: cell-based
Method: as §1

[3] = test system: formation of AGEs (BSA-glucose); assay: BSA-glucose antiglycation assay; format: biochemical; conditions: for IC50: read-out: Protein glycation BSA-Glucose IC50; for Protein glycation BSA-Glucose % inhibition: isolated constituents, at the highest test concentration of 3 mM
Method: The BSA-glucose and BSA-MGO antiglycation assays were performed as reported before ([Amin et al., 2016]). The test protocol is attached as Supplementary Material ([Amin et al., 2016]).
28 Antiglycation assay (BSA-Glucose assay)
29 In the BSA-glucose assay the prevention of AGEs formation is investigated by determining the
30 fluorescence of the complex formed after incubation of a sugar (glucose) with protein (BSA) in
31 the presence or absence of test compounds. The antiglycation assay was performed according to
32 the method developed by Matsuura et al. (2002) with minor modifications. […]
37 DMSO. The mixtures were incubated at 60°C for 48 h. After incubation, the reaction mixture
38 was allowed to cool down at room temperature. Then 100 µL reaction mixture was transferred
39 to a new plastic tube (1.5 mL) and the reaction was stopped by adding 10 μL of 100% (w/v)
40 trichloroacetic acid (TCA) and to precipitate proteins. The TCA-added mixture was kept at 4°C
41 for 10 min, followed by centrifugation (14000 rpm, 4 °C, 4 min). The supernatant containing
42 unreacted D-glucose, test sample and interfering substances was discarded, whereas the
44 8.1 mM Na2HPO4, 2.68 mM KCl, 1.47 mM KH2PO4, […]). The change in fluorescence
46 of AGEs was monitored by spectrofluorometry (Tecan™ Infinite M200, Giessen, The
47 Netherlands). In order to eliminate interference by autofluorescence of the test compounds, a
48 parallel incubation of test substance with BSA at 60°C without D-glucose was performed for all
50 final concentration) were used as reference compounds.
51 The AGEs inhibition was calculated as
55 where F is the fluorescence intensity.
56 calculated using Sigma plot® 13.0.

Plasmodium falciparum K1 = assay: Antimicrobial screening panel: Plasmodium falciparum; format: cell-based
Method: as §1

[4] = test system: AAPH induced linoleic acid peroxidation; assay: Inhibition of linoleic acid lipid peroxidation, AAPH assay; format: biochemical; conditions: slope of inhibition time (Tinh) vs. concentration of antioxidant
Method: The inhibition of linoleic acid lipid peroxidation was studied according to [Liegeois et al. (2000)] and [Rajic et al. (2010)]. Briefly, 10 μL of a 16 mM linoleic acid dispersion and 10 μL of the test compound (8-1 μM final concentration) were added to the UV cuvette containing 0.93 mL of 0.05 M phosphate buffer, pH 7.4. The oxidation reaction was initiated under air by the addition of 50 μL (40 mM) of AAPH solution. The rate of oxidation at 37°C was monitored by recording the increase of absorption at 234 nm caused by conjugated diene hydroperoxides. The results were compared to the standard inhibitor (Trolox). The AOP is defined as the slope of the curve representing the inhibition time of oxidation (Tinh) vs. the concentration of antioxidant and is expressed in min/μM.

SMILES	cytotoxicity against MRC-5 cells [1]	IC50 (Staphylococcus aureus) [µM]	IC50 [2] [µM]	IC50 [3] [µM]	IC50 (Plasmodium falciparum K1) [µM]	AAPH assay AOP (antioxidant power) [4]	Protein glycation BSA-Glucose % inhibition [3]
COc1ccc(-c2cc(=O)c3c(O)c(OC)c(O)cc3o2)cc1 [Compound 5, Pectolinarigenin]	not cytotoxic	49.8	32	790	41.8	0.2 min/µM	–
COC(=O)C1=COC(OC2OC(CO)C(O)C(O)C2O)C2C1CCC2(C)O (stereo not shown) [Compound 3, Mussaenoside]	–	–	–	–	–	0.1 min/µM	28%
COc1ccc(-c2cc(=O)c3c(O)c(OC)c(O[C@@H]4O[C@H](CO[C@@H]5O[C@@H](C)[C@H](O)[C@@H](O)[C@H]5O)[C@@H](O)[C@H](O)[C@H]4O)cc3o2)cc1 [Compound 6, Pectolinarin]	–	–	–	2290	–	0.3 min/µM	–
CO[C@H]1C[C@@]2(O)[C@H](O)[C@@H](O)[C@](C)(OC)[C@H]2[C@@H](OC)O1 [Compound 1, Kickxiasine]	–	–	–	–	–	0.3 min/µM	26%
CC1(O)CCC2C(C(=O)O)=COC(OC3OC(CO)C(O)C(O)C3O)C21 (stereo not shown) [Compound 2, Mussaenosidic acid]	–	–	–	–	–	0.2 min/µM	35%
COC(=O)c1ccc(O)cc1 [Compound 7, 4-Hydroxy benzoic acid methyl ester]	–	–	–	–	–	did not present any activity; also recorded: Not active	did not present any inhibition; also recorded: no activity
